# Experimental data published in patent US7910751B2, “Heterocyclidene acetamide derivative” (Mochida Pharmaceutical Co., Ltd., priority 2005, dated 2011).
# Target: T1, human TRPV1 (Homo sapiens, UniProt Q8NER1)
# T1 construct: expressed in transfected cells; host or cells: CHO-K1
# Test: Measurement of capsaicin-induced Ca influx in human TRPV1 transformed CHO cell line using FDSS-6000
# Format: cell-based
# Conditions: concentration at which the capsaicin concentration-reaction curve is shifted two times to the right, human TRPV1 transformed CHO cells
# T1 sequence (Q8NER1 whole entry): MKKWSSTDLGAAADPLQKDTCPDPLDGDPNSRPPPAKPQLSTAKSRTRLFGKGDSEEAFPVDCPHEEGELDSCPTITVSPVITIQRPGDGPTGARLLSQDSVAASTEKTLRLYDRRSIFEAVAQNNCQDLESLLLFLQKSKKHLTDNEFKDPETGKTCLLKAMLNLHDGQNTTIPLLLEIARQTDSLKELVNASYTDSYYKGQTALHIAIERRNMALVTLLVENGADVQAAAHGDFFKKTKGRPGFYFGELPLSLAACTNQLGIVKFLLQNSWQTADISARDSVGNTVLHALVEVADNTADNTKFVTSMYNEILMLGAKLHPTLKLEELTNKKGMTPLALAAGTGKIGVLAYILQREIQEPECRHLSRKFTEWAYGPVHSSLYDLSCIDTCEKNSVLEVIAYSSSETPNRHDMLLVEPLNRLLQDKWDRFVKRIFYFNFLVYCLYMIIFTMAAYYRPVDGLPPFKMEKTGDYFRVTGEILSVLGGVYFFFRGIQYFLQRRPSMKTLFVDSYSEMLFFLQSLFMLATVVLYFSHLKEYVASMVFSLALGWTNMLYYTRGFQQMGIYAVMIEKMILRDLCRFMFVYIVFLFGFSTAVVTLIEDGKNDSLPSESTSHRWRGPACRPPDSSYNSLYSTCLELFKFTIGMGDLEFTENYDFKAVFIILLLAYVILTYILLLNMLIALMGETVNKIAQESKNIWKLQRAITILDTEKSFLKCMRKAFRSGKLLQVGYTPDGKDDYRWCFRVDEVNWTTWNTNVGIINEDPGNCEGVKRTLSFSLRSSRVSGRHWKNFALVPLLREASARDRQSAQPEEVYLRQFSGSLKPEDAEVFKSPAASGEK
row,Structure (SMILES),A2 VALUE
1,"Cc1ccc(S(=O)(=O)N2CCC/C(=C\C(=O)Nc3ccc4cccnc4c3)c3ccc(C(F)(F)F)cc32)cc1 [Example 194, (E)-2-(1-(4-methylbenzenesulfonyl)-8-trifluoromethyl-1,2,3,4-tetrahydro-5H-benzo[b]azepin-5-ylidene)-N-(quinolin-7-yl)acetamide]",B (compounds having an A2 value of 100 nM or more are represented by B)
2,"CC(=O)N1CCC/C(=C\C(=O)Nc2ccc3cccnc3c2)c2ccc(C(F)(F)F)cc21 [Example 195, (E)-2-(1-acetyl-8-trifluoromethyl-1,2,3,4-tetrahydro-5H-benzo[b]azepin-5-ylidene)-N-(quinolin-7-yl)acetamide]",B (compounds having an A2 value of 100 nM or more are represented by B)
3,"CN1CCC/C(=C\C(=O)Nc2ccc3cccnc3c2)c2ccc(C(F)(F)F)cc21 [Example 196, (E)-2-(1-methyl-8-trifluoromethyl-1,2,3,4-tetrahydro-5H-benzo[b]azepin-5-ylidene)-N-(quinolin-7-yl)acetamide]",A (compounds of the present invention having an A2 value of less than 100 nM are represented by A)
4,"O=C(/C=C1\CCCN(CC2CCCC2)c2cc(C(F)(F)F)ccc21)Nc1ccc2cccnc2c1 [Example 197, (E)-2-(1-cyclopentylmethyl-8-trifluoromethyl-1,2,3,4-tetrahydro-5H-benzo[b]azepin-5-ylidene)-N-(quinolin-7-yl)acetamide]",A (compounds of the present invention having an A2 value of less than 100 nM are represented by A)
5,"CN1CCC/C(=C\C(=O)Nc2cccc3ccc(O)cc23)c2ccc(C(F)(F)F)cc21 [Example 198, (E)-2-(1-methyl-8-trifluoromethyl-1,2,3,4-tetrahydro-5H-benzo[b]azepin-5-ylidene)-N-(7-hydroxynaphthalen-1-yl)acetamide]",A (compounds of the present invention having an A2 value of less than 100 nM are represented by A)
6,"CN1CCC/C(=C\C(=O)Nc2cccc3c2CC(O)CC3)c2ccc(C(F)(F)F)cc21 (centres unmarked) [Example 199, (E)-2-(1-methyl-8-trifluoromethyl-1,2,3,4-tetrahydro-5H-benzo[b]azepin-5-ylidene)-N-(7-hydroxy-5,6,7,8-tetrahydronaphthalen-1-yl)acetamide]",A (compounds of the present invention having an A2 value of less than 100 nM are represented by A)
7,"O=C(/C=C1\CCN(c2ncc(CO)cc2Cl)c2cc(C(F)(F)F)ccc21)Nc1cccc2c1CC(O)CC2 (centres unmarked) [Example 200, (E)-2-(1-(3-chloro-5-hydroxymethyl-pyridin-2-yl)-7-trifluoromethyl-2,3-dihydroquinolin-4(1H)-ylidene)-N-(7-hydroxy-5,6,7,8-tetrahydronaphthalen-1-yl)acetamide]",A (compounds of the present invention having an A2 value of less than 100 nM are represented by A)
8,"O=C(/C=C1\CCOc2cc(C(F)(F)F)ccc21)Nc1cccc2c1CCCC2 [Example 202, (E)-2-(7-trifluoromethyl-chroman-4-ylidene)-N-(5,6,7,8-tetrahydronaphthalen-1-yl)acetamide]",A (compounds of the present invention having an A2 value of less than 100 nM are represented by A)
9,"Cc1sc2cnccc2c1NC(=O)/C=C1\CCOc2cc(C(F)(F)F)ccc21 [Example 204, (E)-2-(7-trifluoromethyl-chroman-4-ylidene)-N-(2-methylthieno[2,3-c]pyridin-3-yl)acetamide]",A (compounds of the present invention having an A2 value of less than 100 nM are represented by A)
10,"CC(C)c1ccc2c(c1)OCC/C2=C\C(=O)Nc1cccc2c1CC(O)CC2 (centres unmarked) [Example 206, (E)-2-(7-isopropyl-chroman-4-ylidene)-N-(7-hydroxy-5,6,7,8-tetrahydronaphthalen-1-yl)acetamide]",A (compounds of the present invention having an A2 value of less than 100 nM are represented by A)
11,"CC(C)c1ccc2c(c1)OCC/C2=C\C(=O)Nc1cccc2c1CC(O)CN2 (centres unmarked) [Example 207, (E)-2-(7-isopropyl-chroman-4-ylidene)-N-(3-hydroxy-1,2,3,4-tetrahydroquinolin-5-yl)acetamide]",A (compounds of the present invention having an A2 value of less than 100 nM are represented by A)
12,"O=C(/C=C1\CCOc2cc(Cl)ccc21)Nc1cccc2c1CC(O)CC2 (centres unmarked) [Example 208, (E)-2-(7-chloro-chroman-4-ylidene)-N-(7-hydroxy-5,6,7,8-tetrahydronaphthalen-1-yl)acetamide]",A (compounds of the present invention having an A2 value of less than 100 nM are represented by A)
13,"O=C(/C=C1\CCOc2cc(Cl)ccc21)Nc1cccc2c1CC(O)CN2 (centres unmarked) [Example 209, (E)-2-(7-chloro-chroman-4-ylidene)-N-(3-hydroxy-1,2,3,4-tetrahydroquinolin-5-yl)acetamide]",A (compounds of the present invention having an A2 value of less than 100 nM are represented by A)
14,"O=C(/C=C1\CCOc2cc(OC(F)(F)F)ccc21)Nc1cccc2c1CC(O)CC2 (centres unmarked) [Example 210, (E)-2-(7-trifluoromethoxy-chroman-4-ylidene)-N-(7-hydroxy-5,6,7,8-tetrahydronaphthalen-1-yl)acetamide]",A (compounds of the present invention having an A2 value of less than 100 nM are represented by A)
15,"O=C(/C=C1\CCOc2cc(OC(F)(F)F)ccc21)Nc1cccc2c1CC(O)CN2 (centres unmarked) [Example 211, (E)-2-(7-trifluoromethoxy-chroman-4-ylidene)-N-(3-hydroxy-1,2,3,4-tetrahydroquinolin-5-yl)acetamide]",A (compounds of the present invention having an A2 value of less than 100 nM are represented by A)
16,"O=C(/C=C1\CCOc2cc(OC(F)(F)C(F)F)ccc21)Nc1cccc2c1CC(O)CC2 (centres unmarked) [Example 212, (E)-2-(7-(1,1,2,2-tetrafluoroethoxy)-chroman-4-ylidene)-N-(7-hydroxy-5,6,7,8-tetrahydronaphthalen-1-yl)acetamide]",A (compounds of the present invention having an A2 value of less than 100 nM are represented by A)
17,"O=C(/C=C1\CCOc2cc(OC(F)(F)C(F)F)ccc21)Nc1cccc2c1CC(O)CN2 (centres unmarked) [Example 213, (E)-2-(7-(1,1,2,2-tetrafluoroethoxy)-chroman-4-ylidene)-N-(3-hydroxy-1,2,3,4-tetrahydroquinolin-5-yl)acetamide]",A (compounds of the present invention having an A2 value of less than 100 nM are represented by A)
18,"O=C(/C=C1\CCOc2cc(C(F)(F)F)c(F)cc21)Nc1cccc2c1CC(O)CC2 (centres unmarked) [Example 214, (E)-2-(6-fluoro-7-trifluoromethyl-chroman-4-ylidene)-N-(7-hydroxy-5,6,7,8-tetrahydronaphthalen-1-yl)acetamide]",A (compounds of the present invention having an A2 value of less than 100 nM are represented by A)
19,"O=C(/C=C1\CCOc2cc(C(F)(F)F)c(F)cc21)Nc1cccc2c1CC(O)CN2 (centres unmarked) [Example 215, (E)-2-(6-fluoro-7-trifluoromethyl-chroman-4-ylidene)-N-(3-hydroxy-1,2,3,4-tetrahydroquinolin-5-yl)acetamide]",A (compounds of the present invention having an A2 value of less than 100 nM are represented by A)
20,"O=C(/C=C1\CCOc2cc(C(F)(F)F)ccc21)Nc1ccc2sc(CO)nc2c1 [Example 216, (E)-2-(7-trifluoromethyl-chroman-4-ylidene)-N-(2-hydroxymethyl-1,3-benzothiazolo-5-yl)acetamide]",A (compounds of the present invention having an A2 value of less than 100 nM are represented by A)
